Measurements as given in US11434242B2, “Dopamine-b-hydroxylase inhibitors” (BIAL-PORTELA & Cª, S.A., priority 2017, dated 2022).
Structures can show the parent of a compound that is named as a salt.

Each compound was assayed against T1, DβH (Homo sapiens, UniProt P09172) (assay: DβH inhibition assay in SK-N-SH cellular homogenates (tyramine to octopamine)). Details: SK-N-SH cell homogenate, inhibitor 0.1 μM.
T1 construct: cellular homogenate (75 μg total protein); host or cells: SK-N-SH cells (homogenate)
T1 sequence (P09172 1-617): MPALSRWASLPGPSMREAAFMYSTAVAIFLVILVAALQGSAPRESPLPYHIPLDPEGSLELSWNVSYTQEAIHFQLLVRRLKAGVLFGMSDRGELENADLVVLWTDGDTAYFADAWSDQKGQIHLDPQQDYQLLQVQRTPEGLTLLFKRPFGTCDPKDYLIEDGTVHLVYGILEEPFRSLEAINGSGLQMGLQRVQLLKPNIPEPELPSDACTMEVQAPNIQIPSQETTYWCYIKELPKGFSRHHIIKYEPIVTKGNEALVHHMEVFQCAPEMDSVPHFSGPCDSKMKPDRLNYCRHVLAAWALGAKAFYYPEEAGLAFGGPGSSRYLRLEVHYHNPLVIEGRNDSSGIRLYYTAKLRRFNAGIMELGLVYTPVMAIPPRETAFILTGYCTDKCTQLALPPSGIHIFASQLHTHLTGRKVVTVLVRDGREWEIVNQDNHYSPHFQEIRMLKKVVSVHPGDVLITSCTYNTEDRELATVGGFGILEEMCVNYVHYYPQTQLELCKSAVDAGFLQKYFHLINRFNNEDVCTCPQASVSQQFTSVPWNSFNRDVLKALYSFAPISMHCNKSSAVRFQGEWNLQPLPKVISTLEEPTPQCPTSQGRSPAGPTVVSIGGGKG
Type: biochemical

**Q.** How did the “SKNSH (0.1 μM), activity in % of control” value turn out when O=C(O)Cc1[nH]c(=S)n2c1[C@@H]1C[C@]1(c1cc(F)ccc1F)C2 [Example 6, 2-((5aS,6aR)-5a-(2,5-difluorophenyl)-3-thioxo-2,3,5,5a,6,6a-hexahydrocyclopropa[3,4]pyrrolo[1,2-c]imidazol-1-yl)acetic Acid] was run?
**A.** The value was 36.9 % of control.

**Q.** Which “SKNSH (0.1 μM), activity in % of control” value does the source give for O=C(O)Cc1[nH]c(=S)n2c1[C@@H]1C[C@]1(c1cc(F)cc(F)c1)C2 [Example 7, 2-((5aS,6aR)-5a-(3,5-difluorophenyl)-3-thioxo-2,3,5,5a,6,6a-hexahydrocyclopropa[3,4]pyrrolo[1,2-c]imidazol-1-yl)acetic Acid] here?
**A.** The value was 45.6 % of control.

**Q.** Which “SKNSH (0.1 μM), activity in % of control” value does the source give for O=C(O)Cc1[nH]c(=S)n2c1C[C@@H](c1c(F)c(F)cc(F)c1F)C2 [Example 10, (S)-2-(6-(2,3,5,6-tetrafluorophenyl)-3-thioxo-3,5,6,7-tetrahydro-2H-pyrrolo[1,2-c]imidazol-1-yl)acetic Acid] here?
**A.** The value was 46.4 % of control.

**Q.** With OCCc1[nH]c(=S)n2c1[C@@H]1C[C@]1(c1cc(F)ccc1F)C2 [Example 42, (5aS,6aR)-5a-(2,5-difluorophenyl)-1-(2-hydroxyethyl)-5,5a,6,6a-tetrahydrocyclopropa[3,4]pyrrolo[1,2-c]imidazole-3(2H)-thione] as the compound, how does the “SKNSH (0.1 μM), activity in % of control” value read?
**A.** The value was 51.5 % of control.

Same assay, conditions: SK-N-SH cell homogenate, inhibitor 1 μM

**Q.** With CCOC(=O)Cc1[nH]c(=S)n2c1C[C@@H](c1cc(F)ccc1F)C2 [Example 2, (S)-ethyl 2-(6-(2,5-difluorophenyl)-3-thioxo-3,5,6,7-tetrahydro-2H-pyrrolo[1,2-c]imidazol-1-yl)acetate] as the compound, how does the “SKNSH (1 μM), activity in % of control” value read?
**A.** The value was 49.3 % of control.

**Q.** O=C(O)Cc1[nH]c(=S)n2c1C[C@@H](c1cc(F)ccc1F)C2 [Example 3, (S)-2-(6-(2,5-difluorophenyl)-3-thioxo-3,5,6,7-tetrahydro-2H-pyrrolo[1,2-c]imidazol-1-yl)acetic Acid] was tested. Which “SKNSH (1 μM), activity in % of control” value did it give?
**A.** The value was 35.8 % of control.

**Q.** How did the “SKNSH (1 μM), activity in % of control” value turn out when COC(=O)Cc1[nH]c(=S)n2c1[C@@H]1C[C@]1(c1cc(F)ccc1F)C2 [Example 4, Methyl 2-((5aS,6aR)-5a-(2,5-difluorophenyl)-3-thioxo-2,3,5,5a,6,6a-hexahydrocyclopropa[3,4]pyrrolo[1,2-c]imidazol-1-yl)acetate] was run?
**A.** Its value is 20.3 % of control.

**Q.** COC(=O)Cc1[nH]c(=S)n2c1[C@@H]1C[C@]1(c1cc(F)cc(F)c1)C2 [Example 5, Methyl 2-((5aS,6aR)-5a-(3,5-difluorophenyl)-3-thioxo-2,3,5,5a,6,6a-hexahydrocyclopropa[3,4]pyrrolo[1,2-c]imidazol-1-yl)acetate] was tested. Which “SKNSH (1 μM), activity in % of control” value did it give?
**A.** Its value is 19.9 % of control.

**Q.** How did the “SKNSH (1 μM), activity in % of control” value turn out when O=C(O)Cc1[nH]c(=S)n2c1[C@@H]1C[C@]1(c1cc(F)ccc1F)C2 [Example 6, 2-((5aS,6aR)-5a-(2,5-difluorophenyl)-3-thioxo-2,3,5,5a,6,6a-hexahydrocyclopropa[3,4]pyrrolo[1,2-c]imidazol-1-yl)acetic Acid] was run?
**A.** The value was 3.7 % of control.

**Q.** For O=C(O)Cc1[nH]c(=S)n2c1[C@@H]1C[C@]1(c1cc(F)cc(F)c1)C2 [Example 7, 2-((5aS,6aR)-5a-(3,5-difluorophenyl)-3-thioxo-2,3,5,5a,6,6a-hexahydrocyclopropa[3,4]pyrrolo[1,2-c]imidazol-1-yl)acetic Acid], which “SKNSH (1 μM), activity in % of control” value is on record?
**A.** The value was 3.6 % of control.

**Q.** For OCCc1[nH]c(=S)n2c1[C@@H]1C[C@]1(c1cc(F)cc(F)c1)C2 [Example 8, (5aS,6aR)-5a-(3,5-difluorophenyl)-1-(2-hydroxyethyl)-5,5a,6,6a-tetrahydrocyclopropa[3,4]pyrrolo[1,2-c]imidazole-3(2H)-thione], which “SKNSH (1 μM), activity in % of control” value is on record?
**A.** Its value is 15.3 % of control.

**Q.** With O=C(Cc1[nH]c(=S)n2c1C[C@@H](c1cc(F)cc(F)c1)C2)N1CCOCC1 [Example 9, (S)-2-(6-(3,5-difluorophenyl)-3-thioxo-3,5,6,7-tetrahydro-2H-pyrrolo[1,2-c]imidazol-1-yl)-1-morpholinoethanone] as the compound, how does the “SKNSH (1 μM), activity in % of control” value read?
**A.** The value was 54.9 % of control.

**Q.** For O=C(O)Cc1[nH]c(=S)n2c1C[C@@H](c1c(F)c(F)cc(F)c1F)C2 [Example 10, (S)-2-(6-(2,3,5,6-tetrafluorophenyl)-3-thioxo-3,5,6,7-tetrahydro-2H-pyrrolo[1,2-c]imidazol-1-yl)acetic Acid], which “SKNSH (1 μM), activity in % of control” value is on record?
**A.** The value was 2.1 % of control.

**Q.** How did the “SKNSH (1 μM), activity in % of control” value turn out when O=C(O)Cc1[nH]c(=S)n2c1C[C@@H](c1cc(F)cc(F)c1)C2 [Example 11, (S)-2-(6-(3,5-difluorophenyl)-3-thioxo-3,5,6,7-tetrahydro-2H-pyrrolo[1,2-c]imidazol-1-yl)acetic Acid] was run?
**A.** The value was 28.5 % of control.

**Q.** For N#CNC(=O)Cc1[nH]c(=S)n2c1C[C@@H](c1c(F)c(F)cc(F)c1F)C2 [Example 19, (S)—N-cyano-2-(6-(2,3,5,6-tetrafluorophenyl)-3-thioxo-3,5,6,7-tetrahydro-2H-pyrrolo[1,2-c]imidazol-1-yl)acetamide], which “SKNSH (1 μM), activity in % of control” value is on record?
**A.** The value was 16.4 % of control.

**Q.** How did the “SKNSH (1 μM), activity in % of control” value turn out when NC(=O)Cc1[nH]c(=S)n2c1[C@@H]1C[C@]1(c1cc(F)cc(F)c1)C2 [Example 33, 2-((5aS,6aR)-5a-(3,5-difluorophenyl)-3-thioxo-2,3,5,5a,6,6a-hexahydrocyclopropa[3,4]pyrrolo[1,2-c]imidazol-1-yl)acetamide] was run?
**A.** The value was 33.4 % of control.

**Q.** With NCCc1[nH]c(=S)n2c1[C@@H]1C[C@]1(c1cc(F)cc(F)c1)C2 [Example 35, (5aS,6aR)-1-(2-aminoethyl)-5a-(3,5-difluorophenyl)-5,5a,6,6a-tetrahydrocyclopropa[3,4]pyrrolo[1,2-c]imidazole-3(2H)-thione Hydrochloride] as the compound, how does the “SKNSH (1 μM), activity in % of control” value read?
**A.** Its value is 45.9 % of control.

**Q.** Which “SKNSH (1 μM), activity in % of control” value does the source give for N#CCc1[nH]c(=S)n2c1[C@@H]1C[C@]1(c1cc(F)ccc1F)C2 [Example 36, 2-((5aS,6aR)-5a-(2,5-difluorophenyl)-3-thioxo-2,3,5,5a,6,6a-hexahydrocyclopropa[3,4]pyrrolo[1,2-c]imidazol-1-yl)acetonitrile] here?
**A.** The value was 50.1 % of control.

**Q.** With CN(Cc1ccccc1)C(=O)Cc1[nH]c(=S)n2c1[C@@H]1C[C@]1(c1cc(F)ccc1F)C2 [Example 37, N-benzyl-2-((5aS,6aR)-5a-(2,5-difluorophenyl)-3-thioxo-2,3,5,5a,6,6a-hexahydrocyclopropa[3,4]pyrrolo[1,2-c]imidazol-1-yl)-N-methylacetamide] as the compound, how does the “SKNSH (1 μM), activity in % of control” value read?
**A.** Its value is 15.7 % of control.

**Q.** With CCCCN(C)C(=O)Cc1[nH]c(=S)n2c1[C@@H]1C[C@]1(c1cc(F)ccc1F)C2 [Example 38, N-butyl-2-((5aS,6aR)-5a-(2,5-difluorophenyl)-3-thioxo-2,3,5,5a,6,6a-hexahydrocyclopropa[3,4]pyrrolo[1,2-c]imidazol-1-yl)-N-methylacetamide] as the compound, how does the “SKNSH (1 μM), activity in % of control” value read?
**A.** Its value is 20.9 % of control.

**Q.** Which “SKNSH (1 μM), activity in % of control” value does the source give for CCCCN(C)CCc1[nH]c(=S)n2c1[C@@H]1C[C@]1(c1cc(F)ccc1F)C2.Cl [Example 39, (5aS,6aR)-1-(2-(butyl(methyl)amino)ethyl)-5a-(2,5-difluorophenyl)-5,5a,6,6a-tetrahydrocyclopropa[3,4]pyrrolo[1,2-c]imidazole-3(2H)-thione Hydrochloride] here?
**A.** The value was 29.8 % of control.

**Q.** For CN(CCc1[nH]c(=S)n2c1[C@@H]1C[C@]1(c1cc(F)ccc1F)C2)Cc1ccccc1 [Example 40, (5aS,6aR)-1-(2-(benzyl(methyl)amino)ethyl)-5a-(2,5-difluorophenyl)-5,5a,6,6a-tetrahydrocyclopropa[3,4]pyrrolo[1,2-c]imidazole-3(2H)-thione], which “SKNSH (1 μM), activity in % of control” value is on record?
**A.** Its value is 29.3 % of control.

**Q.** How did the “SKNSH (1 μM), activity in % of control” value turn out when Fc1ccc(F)c([C@]23C[C@H]2c2c(Cc4nnn[nH]4)[nH]c(=S)n2C3)c1 [Example 41, (5aS,6aR)-1-((1H-tetrazol-5-yl)methyl)-5a-(2,5-difluorophenyl)-5,5a,6,6a-tetrahydrocyclopropa[3,4]pyrrolo[1,2-c]imidazole-3(2H)-thione] was run?
**A.** Its value is 60.7 % of control.

**Q.** With OCCc1[nH]c(=S)n2c1[C@@H]1C[C@]1(c1cc(F)ccc1F)C2 [Example 42, (5aS,6aR)-5a-(2,5-difluorophenyl)-1-(2-hydroxyethyl)-5,5a,6,6a-tetrahydrocyclopropa[3,4]pyrrolo[1,2-c]imidazole-3(2H)-thione] as the compound, how does the “SKNSH (1 μM), activity in % of control” value read?
**A.** The value was 8.0 % of control.

**Q.** With O=C(O)c1[nH]c(=S)n2c1C[C@@H](c1cc(F)cc(F)c1)C2 [Example 43, (S)-6-(3,5-difluorophenyl)-3-thioxo-3,5,6,7-tetrahydro-2H-pyrrolo[1,2-c]imidazole-1-carboxylic Acid] as the compound, how does the “SKNSH (1 μM), activity in % of control” value read?
**A.** Its value is 45.6 % of control.

**Q.** Which “SKNSH (1 μM), activity in % of control” value does the source give for CCOC(=O)Cc1[nH]c(=S)n2c1C1CC1(c1cccs1)C2 (stereo not drawn) [Example 44, Ethyl 2-(5a-(thiophen-2-yl)-3-thioxo-2,3,5,5a,6,6a-hexahydrocyclopropa[3,4]pyrrolo[1,2-c]imidazol-1-yl)acetate] here?
**A.** Its value is 45.9 % of control.

**Q.** With O=Cc1[nH]c(=S)n2c1C[C@@H](c1cc(F)cc(F)c1)C2 [Example 45, (S)-6-(3,5-difluorophenyl)-3-thioxo-3,5,6,7-tetrahydro-2H-pyrrolo[1,2-c]imidazole-1-carbaldehyde] as the compound, how does the “SKNSH (1 μM), activity in % of control” value read?
**A.** Its value is 46.8 % of control.

**Q.** How did the “SKNSH (1 μM), activity in % of control” value turn out when CS(=O)(=O)Cc1[nH]c(=S)n2c1C[C@@H](c1c(F)c(F)cc(F)c1F)C2 [Example 47, (S)-1-(methylsulfonylmethyl)-6-(2,3,5,6-tetrafluorophenyl)-6,7-dihydro-2H-pyrrolo[1,2-c]imidazole-3(5H)-thione] was run?
**A.** Its value is 62.9 % of control.

**Q.** Fc1ccc(F)c([C@]23C[C@H]2c2c(CCc4ccccc4)[nH]c(=S)n2C3)c1 [Example 48, (5aS,6aR)-5a-(2,5-difluorophenyl)-1-phenethyl-5,5a,6,6a-tetrahydrocyclopropa[3,4]pyrrolo[1,2-c]imidazole-3(2H)-thione] was tested. Which “SKNSH (1 μM), activity in % of control” value did it give?
**A.** Its value is 48.4 % of control.

**Q.** Which “SKNSH (1 μM), activity in % of control” value does the source give for Fc1ccc(F)c([C@]23C[C@H]2c2c(CCCc4ccccc4)[nH]c(=S)n2C3)c1 [Example 49, (5aS,6aR)-5a-(2,5-difluorophenyl)-1-(3-phenylpropyl)-5,5a,6,6a-tetrahydrocyclopropa[3,4]pyrrolo[1,2-c]imidazole-3(2H)-thione] here?
**A.** The value was 33.7 % of control.
